Assay results published in PubChem BioAssay AID248 (DTP/NCI, 2004).
Values joined by “and” are separate entries in the source; they are usually repeats but may differ in a detail not shown here. Equal entries are not always repeated. Inconclusive results and toxic doses are left out. Cut-off read from the data, not from the text of the source: active = T/C of 150% or more; inactive = T/C below 125%.

Tested on: L1210 leukemia ip in BDF1 mice, survival T/C
Assay: NCI In Vivo Anticancer Drug Screen. Data for tumor model L1210 Leukemia (intraperitoneal) in B6D2F1 (BDF1) mice
Details: endpoint: mean survival time, higher = longer survival
How it was run: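 In this screen, tumor-bearing mice given compound are compared to those given vehicle, and their survival values are reported as a treated-to-control quotient.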

[1] = dose: 50.0 mg/kg/injection, schedule: Q01DX009 (ip), vehicle: Klucel (hydroxypropylcellulose) (HPC)
[2] = dose: 100.0 mg/kg/injection, schedule: Q01DX009 (ip), vehicle: saline with Tween-80
[3] = dose: 200.0 mg/kg/injection, schedule: Q01DX009 (ip), vehicle: saline with Tween-80
[4] = dose: 400.0 mg/kg/injection, schedule: Q01DX009 (ip), vehicle: saline with Tween-80
[5] = dose: 100.0 mg/kg/injection, schedule: Q04DX003 (ip), vehicle: Klucel (hydroxypropylcellulose) (HPC)
[6] = dose: 200.0 mg/kg/injection, schedule: Q04DX003 (ip), vehicle: Klucel (hydroxypropylcellulose) (HPC)
[7] = dose: 400.0 mg/kg/injection, schedule: Q04DX003 (ip), vehicle: Klucel (hydroxypropylcellulose) (HPC)
[8] = dose: 100.0 mg/kg/injection, schedule: Q01DX009 (ip), vehicle: saline
[9] = dose: 200.0 mg/kg/injection, schedule: Q01DX009 (ip), vehicle: saline
[10] = dose: 100.0 mg/kg/injection, schedule: Q01DX009 (ip), vehicle: Klucel (hydroxypropylcellulose) (HPC)
[11] = dose: 200.0 mg/kg/injection, schedule: Q01DX009 (ip), vehicle: Klucel (hydroxypropylcellulose) (HPC)
[12] = dose: 100.0 mg/kg/injection, schedule: Q01DX001 (ip), vehicle: saline
[13] = dose: 200.0 mg/kg/injection, schedule: Q01DX001 (ip), vehicle: saline
[14] = dose: 400.0 mg/kg/injection, schedule: Q01DX001 (ip), vehicle: saline
[15] = dose: 400.0 mg/kg/injection, schedule: Q01DX009 (ip), vehicle: saline
[16] = dose: 50.0 mg/kg/injection, schedule: Q01DX001 (ip), vehicle: saline

Measured: T/C

COC(=O)C(c1ccccc1)C(O)c1ccccc1 (stereo not drawn)
inactive: dose: 55.0 mg/kg/injection, schedule: Q01DX Z (ip), vehicle: methylcellulose (MC) 113 % of control | dose: 83.0 mg/kg/injection, schedule: Q01DX Z (ip), vehicle: methylcellulose (MC) 94 % of control | dose: 125.0 mg/kg/injection, schedule: Q01DX Z (ip), vehicle: methylcellulose (MC) 93 % of control

CC(C)=CBr
inactive: dose: 50.0 mg/kg/injection, schedule: Q01DX009 (ip), vehicle: acetone 96 % of control | dose: 100.0 mg/kg/injection, schedule: Q01DX009 (ip), vehicle: acetone 89 % of control | dose: 200.0 mg/kg/injection, schedule: Q01DX009 (ip), vehicle: acetone 103 % of control

Cc1cnc(-n2nc(-c3ccccc3)cc2-c2ccccc2)nc1-c1ccccc1O
inactive: dose: 12.5 mg/kg/injection, schedule: Q01DX009 (ip), vehicle: Klucel (hydroxypropylcellulose) (HPC) 87 % of control | dose: 25.0 mg/kg/injection, schedule: Q01DX009 (ip), vehicle: Klucel (hydroxypropylcellulose) (HPC) 91 % of control | [1] 97 % of control and 92 % of control

O=C1/C(=C/c2ccccc2)Cc2ccccc21
inactive: [2] 95 % of control | dose: 100.0 mg/kg/injection, schedule: Q04DX003 (ip), vehicle: saline with Tween-80 101 % of control | [3] 95 % of control | dose: 200.0 mg/kg/injection, schedule: Q04DX003 (ip), vehicle: saline with Tween-80 95 % of control | [4] 95 % of control | dose: 400.0 mg/kg/injection, schedule: Q04DX003 (ip), vehicle: saline with Tween-80 109 % of control

O=C(O)C(Br)C(Br)C(=O)O (stereo not drawn)
inactive: dose: 100.0 mg/kg/injection, schedule: Q04DX002 (ip), vehicle: saline 92 % of control | [5] 97 % of control | dose: 200.0 mg/kg/injection, schedule: Q04DX002 (ip), vehicle: saline 100 % of control | [6] 103 % of control | [7] 95 % of control

Nc1ncnc(N)c1N=O
inactive: dose: 50.0 mg/kg/injection, schedule: Q01DX009 (ip), vehicle: saline 107 % of control | [8] 91 % of control | [9] 101 % of control

Cc1ccc(C(=O)NC(N)=O)cc1
inactive: [10] 101 % of control | [11] 95 % of control

Nc1ncnc(N)c1NC(=O)CCCc1ccc([N+](=O)[O-])cc1
inactive: dose: 50.0 mg/kg/injection, schedule: Q01DX001 (ip), vehicle: Klucel (hydroxypropylcellulose) (HPC) 102 % of control | dose: 100.0 mg/kg/injection, schedule: Q01DX001 (ip), vehicle: Klucel (hydroxypropylcellulose) (HPC) 98 % of control | dose: 200.0 mg/kg/injection, schedule: Q01DX001 (ip), vehicle: Klucel (hydroxypropylcellulose) (HPC) 94 % of control

CSc1nc(NC(=O)CCl)cc(NC(=O)CCl)n1
inactive: dose: 12.5 mg/kg/injection, schedule: Q01DX005 (ip), vehicle: saline 105 % of control | dose: 25.0 mg/kg/injection, schedule: Q01DX005 (ip), vehicle: saline 112 % of control

CCCCCC(=O)OCCOC(=O)CCCCC
inactive: [2] 103 % of control | [3] 101 % of control | [4] 92 % of control

O=C(Nc1nccs1)c1ccccc1F
inactive: dose: 100.0 mg/kg/injection, schedule: Q04DX002 (ip), vehicle: Klucel (hydroxypropylcellulose) (HPC) 87 % of control | dose: 200.0 mg/kg/injection, schedule: Q04DX002 (ip), vehicle: Klucel (hydroxypropylcellulose) (HPC) 97 % of control | dose: 400.0 mg/kg/injection, schedule: Q04DX002 (ip), vehicle: Klucel (hydroxypropylcellulose) (HPC) 102 % of control

COc1ccc(C(C)CO)cc1 (stereo not drawn)
inactive: dose: 50.0 mg/kg/injection, schedule: Q01DX009 (ip), vehicle: saline with Tween-80 102 % of control | [2] 94 % of control | [3] 102 % of control

CCSCN1CCN(CSCC)C(C)C1 (stereo not drawn)
inactive: [12] 104 % of control | [13] 106 % of control | [14] 112 % of control

S=C1NCCS1
inactive: dose: 50.0 mg/kg/injection, schedule: Q01DX001 (ip), vehicle: carboxymethylcellulose (CMC) 113 % of control | [1] 110 % of control | dose: 100.0 mg/kg/injection, schedule: Q01DX001 (ip), vehicle: carboxymethylcellulose (CMC) 102 % of control | [10] 108 % of control | [5] 108 % of control | dose: 200.0 mg/kg/injection, schedule: Q01DX001 (ip), vehicle: carboxymethylcellulose (CMC) 94 % of control | [11] 110 % of control | [6] 113 % of control

COC(=O)C1(C)CCc2c(ccc3ccccc23)C1=O (stereo not drawn)
inactive: [8] 100 % of control | dose: 100.0 mg/kg/injection, schedule: Q04DX003 (ip), vehicle: saline 97 % of control | [9] 102 % of control | dose: 200.0 mg/kg/injection, schedule: Q04DX003 (ip), vehicle: saline 94 % of control | [15] 99 % of control | dose: 400.0 mg/kg/injection, schedule: Q04DX003 (ip), vehicle: saline 102 % of control

COC(=O)C1=C(C(=O)OC)C2C=CC1C2
inactive: [12] 102 % of control | [10] 111 % of control | [13] 94 % of control | [11] 91 % of control | [14] 91 % of control | dose: 400.0 mg/kg/injection, schedule: Q01DX009 (ip), vehicle: Klucel (hydroxypropylcellulose) (HPC) 97 % of control

CC(=O)Oc1ccc2nccc(C)c2c1
inactive: [12] 100 % of control | [13] 100 % of control | [14] 100 % of control

CC(=O)C12OC1CC1C3CCC4=CC(=O)CCC4(C)C3CC(=O)C12C (stereo not drawn)
inactive: dose: 75.0 mg/kg/injection, schedule: Q01DX009 (ip), vehicle: carboxymethylcellulose (CMC) 94 % of control | dose: 150.0 mg/kg/injection, schedule: Q01DX009 (ip), vehicle: carboxymethylcellulose (CMC) 107 % of control | dose: 300.0 mg/kg/injection, schedule: Q01DX009 (ip), vehicle: carboxymethylcellulose (CMC) 105 % of control

O=C1c2cccc(S(=O)(=O)O)c2C(=O)c2cccc(S(=O)(=O)O)c21
inactive: [16] 102 % of control | [12] 109 % of control | [13] 111 % of control | [14] 109 % of control

O=C(OCC1OC(n2ccc(=S)[nH]c2=O)C(OC(=O)c2ccccc2)C1OC(=O)c1ccccc1)c1ccccc1 (stereo not drawn)
inactive: [16] 98 % of control | [12] 95 % of control | [13] 101 % of control | [14] 104 % of control

COC(=O)NS(=O)(=O)c1cccs1
inactive: dose: 100.0 mg/kg/injection, schedule: Q04DX002 (ip), vehicle: other 98 % of control | dose: 200.0 mg/kg/injection, schedule: Q04DX002 (ip), vehicle: other 94 % of control | dose: 400.0 mg/kg/injection, schedule: Q04DX002 (ip), vehicle: other 102 % of control

CC(C)(CCC(=S)N1CCOCC1)c1ccccc1
inactive: [5] 101 % of control | [6] 102 % of control | [7] 102 % of control

Cc1ccc(S(=O)(=O)OCC(F)(F)C(F)(F)C(F)(F)C(F)(F)C(F)(F)C(F)(F)C(F)(F)F)cc1
inactive: [8] 94 % of control | [9] 88 % of control | [15] 93 % of control

O=C1NC(=O)C(=Cc2ccccc2)C(=O)N1
inactive: dose: 100.0 mg/kg/injection, schedule: Q04DX002 (ip), vehicle: saline with Tween-80 98 % of control | dose: 200.0 mg/kg/injection, schedule: Q01DX Z (ip), vehicle: methylcellulose (MC) 94 % of control | dose: 200.0 mg/kg/injection, schedule: Q04DX002 (ip), vehicle: saline with Tween-80 106 % of control
